Measured values taken from publication PMC8348200, “Selective Antifungal Activity and Fungal Biofilm Inhibition of Tryptophan Center Symmetrical Short Peptide” (International Journal of Molecular Sciences, 2021).
In brackets after ≈: the same amount, converted by molar mass. Like-named read-outs stand apart in the source and are kept apart here.

What was measured:
[1] = tested on: C. tropicalis cgmcc 2.1975; assay: microbe, parasite or virus in culture; assay type: cell-based; details: RPMI 1640 buffered with MOPS, 28 °C 48 h, 0.5-128 μM, read-out: MICs, C. tropicalis cgmcc 2.1975
Protocol: (§1) The peptide antimicrobial activity was determined according to the Clinical and Laboratory Standards Institute method, with modifications. Bacteria concentration was measured by ultraviolet spectrophotometer, and fungi concentration was confirmed by McMillan’s turbidimetric method, which compared the fungi solution with the standard McFarland tube in front of the horizontal line on the paper with the naked eye. Because the light has different refract in different liquids. The standard solution is composed of sulfuric acid and barium chloride, which is equivalent to 1*10^8 CFU fungi. After cultivation, the growth of fungi and bacteria was measured by TECAN automatic enzyme label instrument. Briefly, bacterial cells were cultured in MHB until logarithmic phase, yeast colonies cultured in Yeast Peptone Dextrose Agar (YPDA) were picked and diluted in RPMI 1640 growth medium buffered with morpholine propane sulfonic acid (MOPS), and then 50 μL of bacterial or fungi cell solution (0.5–1 × 10^4 CFU/mL) was added to each well of sterile 96-well plates. Each well contained 50 μL of AMPs dissolved in BSA; the final concentrations of the peptides ranged from 0.5 to 128 μM. The lowest concentration of peptide with no microbial growth being observed were measured after incubation at 37 °C for 24 h for bacteria or at 28 °C for 48 h for fungi. Broth with microbial cells and un-inoculated broth were used as positive control and negative controls, respectively.

L. plantarum 7469 = assay: microbe, parasite or virus in culture; assay type: cell-based; details: 37 °C 24 h, peptides 0.5-128 μM, lowest concentration inhibiting 95% of growth, three independent experiments, read-out: MICs, L. plantarum 7469
Protocol: as §1

[2] = tested on: C. parapsilosis cgmcc 2.3989; assay: microbe, parasite or virus in culture; assay type: cell-based; details: RPMI 1640 buffered with MOPS, 28 °C 48 h, 0.5-128 μM, read-out: MICs, C. parapsilosis cgmcc 2.3989
Protocol: as §1

S. aureus 25923 = assay: microbe, parasite or virus in culture; assay type: cell-based, Staphylococcus aureus; details: MHB, 37 °C 24 h, peptides 0.5-128 μM, lowest concentration inhibiting 95% of growth, three independent experiments, read-out: MICs, S. aureus 25923
Protocol: as §1

C. albicans cgmcc 2.2086 [3] = assay: Propidium iodide influx, flow cytometry; assay type: cell-based, Candida albicans; details: 1× MIC, 1 h at 28 °C; 10 μg/mL PI
Protocol: Cell membrane permeabilization after treatment with P19, melittin, fluconazole or amphotericin B were also detected via the propidium iodide influx assay. In brief, C. albicans cgmcc 2.2086 cells (1 × 10^4 cells/mL) were treated with antifungal agents for 1 h at 28 °C, then washed, harvested by centrifugation and resuspended in PBS. The cells were treated with 10 μg/mL propidium iodide and incubated for 30 min at room temperature. The uptake of propidium iodide into these cells was analyzed with a FACS flow cytometer (Becton–Dickinson, San Jose, CA) with a laser excitation wavelength of 488 nm. The flow cytometry results can be interpreted as follows. Region Q1 was identified as a living cell region; it represents cells treated with PBS. Q2 region represents the dead cell region. Ignored the surrounding adherent scattered points, the most concentrated scattered points represented the largest cell density. The areas where cells were concentrated represent the state of cells as live or die.

C. albicans cgmcc 2.2086 [4] = assay: Resistance development by sequential passaging at sub-MIC; assay type: cell-based, Candida albicans; details: 20-passage repeating treatment at sub-lethal concentration
Protocol: Resistance development of C. albicans cgmcc 2.2086 against antifungals was explored using a sequential passaging method, described in our previous study [22]. Briefly, MIC testing was first conducted for P19, fluconazole and amphotericin B. After a 24 h incubation, fungal cells growing in a well with a half-MIC level were harvested and diluted to 0.5–1 × 10^4 CFU/mL using RPMI 1640 growth medium buffered with morpholine propane sulfonic acid (MOPS). The inoculum was subjected to subsequent passage MIC testing, and the process was repeated for 30 days. The fold change in MIC was plotted against the number of passages.

C. albicans cgmcc 2.2086 [5] = assay: Cytoplasmic membrane depolarization assay (DiSC3-5); assay type: cell-based, Candida albicans; details: agents at their MICs, 1 h; 0.4 μM DiSC3-5
Protocol: To analyze membrane disturbances due to P19, melittin, fluconazole or amphotericin B-treated, cells (1 × 10^4 cells/mL) of C. albicans cgmcc 2.2086 were incubated with antimicrobial agents at their respective MICs for 1 h at room temperature; the cells were then harvested by centrifugation and resuspended in 1 mL PBS (pH 7.4). […] Changes in fluorescence were measured from 0 to 800 s with a F-4500 fluorescence spectrophotometer (Hitachi, Japan) at an excitation wavelength of 622 nm and an emission wavelength of 670 nm.

E. coli UB1005 = assay: microbe, parasite or virus in culture; assay type: cell-based, Escherichia coli; details: Escherichia coli, UB1005; MHB, 37 °C 24 h, peptides 0.5-128 μM; lowest concentration inhibiting 95% of growth; three independent experiments; read-out: MICs, E. coli UB1005
Protocol: as §1

E. coli 25922 = assay: microbe, parasite or virus in culture; assay type: cell-based, Escherichia coli; details: Escherichia coli, 25922; MHB, 37 °C 24 h, peptides 0.5-128 μM; lowest concentration inhibiting 95% of growth; three independent experiments; read-out: MICs, E. coli 25922
Protocol: as §1

[6] = Lactiplantibacillus plantarum, 7469
[7] = Lodderomyces parapsilosis, CGMCC2

CC[C@H](C)[C@H](NC(=O)CN)C(=O)NCC(=O)N[C@@H](C)C(=O)N[C@H](C(=O)N[C@@H](CC(C)C)C(=O)N[C@@H](CCCCN)C(=O)N[C@H](C(=O)N[C@@H](CC(C)C)C(=O)N[C@H](C(=O)N[C@H](C(=O)NCC(=O)N[C@@H](CC(C)C)C(=O)N1CCC[C@H]1C(=O)N[C@@H](C)C(=O)N[C@@H](CC(C)C)C(=O)N[C@H](C(=O)N[C@@H](CO)C(=O)N[C@@H](Cc1c[nH]c2ccccc12)C(=O)N[C@H](C(=O)N[C@@H](CCCCN)C(=O)N[C@@H](CCCNC(=N)N)C(=O)N[C@@H](CCCCN)C(=O)N[C@@H](CCCNC(=N)N)C(=O)N[C@@H](CCC(N)=O)C(=O)N[C@@H](CCC(N)=O)C(N)=O)[C@@H](C)CC)[C@@H](C)CC)[C@@H](C)O)[C@@H](C)O)C(C)C)C(C)C [Melittin, reference compound]
MIC [1]: 2 µM (≈ 5.69 µg/mL)
MIC (L. plantarum 7469): >128 µM
MIC [2]: 2 µM (≈ 5.69 µg/mL)
MIC (S. aureus 25923): 2 µM (≈ 5.69 µg/mL)
increase of PI fluorescent signal (C. albicans cgmcc 2.2086 [3]): more than 90%

C[C@@H]1[C@H](O)[C@@H](C)/C=C/C=C/C=C/C=C/C=C/C=C/C=C/[C@H](O[C@@H]2O[C@H](C)[C@@H](O)[C@H](N)[C@@H]2O)C[C@@H]2O[C@](O)(C[C@@H](O)C[C@@H](O)[C@H](O)CC[C@@H](O)C[C@@H](O)CC(=O)O[C@H]1C)C[C@H](O)[C@H]2C(=O)O [Amphotericin B, reference compound]
MIC ([1]; Candida tropicalis, CGMCC2): 1 µM (≈ 0.924 µg/mL)
MIC (L. plantarum 7469; [6]): > 128 µM
MIC [2, 7]: 2 µM (≈ 1.85 µg/mL)
increase in MIC value compared with the first passage (C. albicans cgmcc 2.2086 [4]): 1024 fold
membrane depolarization (DiSC3-5 fluorescence intensity) (C. albicans cgmcc 2.2086 [5]): minor change of membrane depolarization
MIC (E. coli UB1005): > 128 µM
MIC (E. coli 25922): > 128 µM
MIC (S. aureus 25923; Staphylococcus aureus, 25923): > 128 µM

OC(Cn1cncn1)(Cn1cncn1)c1ccc(F)cc1F [Fluconazole, reference compound]
MIC ([1]; Candida tropicalis, CGMCC2): 4 µM (≈ 1.23 µg/mL)
MIC (L. plantarum 7469; [6]): > 128 µM
MIC [2, 7]: 4 µM (≈ 1.23 µg/mL)
increase in MIC value compared with the first passage (C. albicans cgmcc 2.2086 [4]): 1024 fold
membrane depolarization (DiSC3-5 fluorescence intensity) (C. albicans cgmcc 2.2086 [5]): minor change of membrane depolarization
MIC (E. coli UB1005): > 128 µM
MIC (E. coli 25922): > 128 µM
MIC (S. aureus 25923; Staphylococcus aureus, 25923): > 128 µM
